Source: publication PMC3733449 (Bioorganic & medicinal chemistry, 2013)
Read-outs that look alike come from different tables or passages of the source. Marks after values point to notes of the source that are not given here.

How the values were obtained:
[1] = target: human D3 dopamine receptor (Homo sapiens, UniProt P35462); assay: Competitive radioligand binding, D3 dopamine receptor; details: D2:D3 Ki value ratio
[2] = target: T1, human D3 receptors expressed in stably transfected HEK 293 cells (Homo sapiens, UniProt P35462); assay: Forskolin-dependent whole cell adenylyl cyclase inhibition assay, D3; assay type: cell-based; details: result in words
T1 sequence (P35462 whole entry): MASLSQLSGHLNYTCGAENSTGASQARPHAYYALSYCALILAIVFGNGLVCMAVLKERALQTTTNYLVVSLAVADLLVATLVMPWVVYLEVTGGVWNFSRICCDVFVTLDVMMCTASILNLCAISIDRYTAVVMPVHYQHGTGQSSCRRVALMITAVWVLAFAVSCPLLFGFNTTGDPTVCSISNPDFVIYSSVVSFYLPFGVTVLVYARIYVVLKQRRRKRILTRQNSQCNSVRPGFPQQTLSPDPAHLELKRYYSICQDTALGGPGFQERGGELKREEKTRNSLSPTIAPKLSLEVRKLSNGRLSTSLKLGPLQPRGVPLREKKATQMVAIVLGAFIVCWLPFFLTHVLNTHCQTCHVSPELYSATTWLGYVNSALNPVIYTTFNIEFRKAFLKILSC

[3] = published data; ref Leopoldo et al, 2002. [24]; cited from earlier work
[4] = target: T1, human D3 receptors expressed in stably transfected HEK 293 cells; details: result in words, previously reported; cited from earlier work

Sequence of human D3 dopamine receptor (P35462 whole entry): as above

For `COc1ccccc1N1CCCN(CCCCNC(=O)c2ccc(-c3ccsc3)cc2)CC1` [Compound 11a, N-(4-(4-(2-Methoxyphenyl)-1,4-diazepan-1-yl)butyl)-4-(thiophen-3-yl)benzamide], the “D2/D3 (Ki ratio)” value [1] was greater than 100.
For `COc1ccccc1N1CCCN(CCCCNC(=O)c2ccc(CCF)cc2)CC1` [Compound 11e, 4-(2-Fluoroethyl)-N-(4-(4-(2-methoxyphenyl)-1,4-diazepan-1-yl)butyl)benzamide], the “efficacy class at D3 receptors” value [2] was “strong partial agonist”.
For `O=C(NCCCCN1CCN(c2cccc(Cl)c2Cl)CC1)c1ccc2c(c1)Cc1ccccc1-2` [NGB-2904], the “Log P” value [3] is given as 6.94 ^h.
In the case of `COc1ccccc1N1CCN(CCCCNC(=O)c2ccc(CCF)cc2)CC1` [WC-44], the “efficacy class at D3 receptors” value [4] is listed as “full agonist”.
